What was measured:
[1] = human
[2] = human; remark: listed apart in the source
[3] = Highest frequency of acute liver toxicity observed during clinical trials, expressed as a percentage. [column '% AIGUE' in source]; settings: human
[4] = Highest frequency of moderate liver toxicity observed during clinical trials, expressed as a percentage. [column '% BIOL' in source]; settings: human
[5] = human, serum, 4383 h
[6] = Times to onset, minimal and maximal, observed in the indexed observations. [column 'DELAI' in source]; settings: human
[7] = human; remark: listed apart in the source
[8] = human; remark: listed apart in the source
[9] = Proposed mechanism(s) of liver damage. [column 'MEC' in source]; settings: human
[10] = human; remark: listed apart in the source
[11] = Comments (NB not yet translated). [column 'COMMENTAIRES' in source]; settings: human
[12] = human, serum
[13] = human; remark: listed apart in the source
[14] = human; remark: listed apart in the source
[15] = human, serum; remark: listed apart in the source
[16] = human; remark: listed apart in the source
[17] = human; remark: listed apart in the source
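Wherever Hepatotoxicity (association with vascular disease) is given: count of indexed literature references reporting vascular liver injury in humans, e.g. peliosis hepatitis, hepatic veno-occlusive disease or Budd-Chiari syndrome.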
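Wherever Hepatotoxicity (benign tumour) is given: value is a count of indexed literature references citing a benign tumour confirmed by histopathology.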
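Wherever Hepatotoxicity (choleostasis) is given: human cholestatic liver injury, shown by histopathology or by peak ALT or AST elevation over alkaline phosphatase ratio below 2, value counts indexed literature reports.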
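Wherever Hepatotoxicity (chronic liver disease) is given: chronic liver injury confirmed by histopathology or persistently raised serum aminotransferase activity beyond 6 months, value given as the count of indexed literature references.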
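Wherever Hepatotoxicity (cirrhosis) is given: value is a count of indexed literature references reporting cirrhosis confirmed by histopathology.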
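Wherever Hepatotoxicity (cytolytic) is given: human cytolytic liver injury, shown by histopathology or by a ratio above 5 of peak ALT or AST elevation to alkaline phosphatase elevation, value counts indexed references.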
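Wherever Hepatotoxicity (granulomatous hepatitis) is given: value is a count of indexed literature references reporting granulomatous liver disease confirmed by histopathology.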
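Wherever Hepatotoxicity (malignant tumour) is given: malignant tumour confirmed by histopathology, value gives the count of indexed literature references reporting it.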
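Wherever Hepatotoxicity (severe hepatitis) is given: human clinical data: severe hepatitis, meaning potentially life-threatening liver failure or clinically observed cases, the value counts how many indexed literature references report it.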
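Wherever Hepatotoxicity (steatosis) is given: steatosis confirmed by histopathology, value is the count of indexed references.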

Compound	Hepatotoxicity (malignant tumour) [1]	Hepatotoxicity (granulomatous hepatitis) [2]	Hepatotoxicity (acute) [3] [%]	Hepatotoxicity (moderate) [4] [%]	Hepatotoxicity (chronic liver disease) [5]	Hepatotoxicity (time to onset) [6]	Hepatotoxicity (cytolytic) [7]	Hepatotoxicity (cirrhosis) [8]	Hepatotoxicity (mechanism) [9]	Hepatotoxicity (choleostasis) [10]	Hepatotoxicity (comment) [11]	Hepatotoxicity (acute) [12]	Hepatotoxicity (severe hepatitis) [13]	Hepatotoxicity (steatosis) [14]	Hepatotoxicity (moderate) [15]	Hepatotoxicity (benign tumour) [16]	Hepatotoxicity (association with vascular disease) [17]
GEMTUZUMAB OZOGAMICIN	0	0	38.3	47.8	0	2 days - 6 months	10	0	Dose-dependant	2	MVO	11	1	0	7	0	19
CO[C@@]1(NC(=O)Cc2cccs2)C(=O)N2C(C(=O)O)=C(COC(N)=O)CS[C@@H]21 [CEFOXITIN]	0	0	0	25.8	0	17 days	0	0	Allergic	1	CHOLESTASE_PROLONGEE	1	0	0	18	0	0
CC1=C(C(=O)O)N2C(=O)[C@@H](NC(=O)[C@H](N)C3=CCC=CC3)[C@H]2SC1 [CEPHRADINE]	0	0	0	24.3	0	3 weeks	0	0	Allergic	1	CHOLECYSTITE_A_EOSINOPHILES	1	0	0	1	0	0
CN(CCOc1ccc(CC2SC(=O)NC2=O)cc1)c1ccccn1 (stereo not given) [ROSIGLITAZONE]	0	3	0	0.2	1	1 week - 4 years	7	0	Allergic	2	CHOLANGITE	10	5	0	8	0	0
COc1ccc2[nH]cc(CCNC(C)=O)c2c1 [MELATONIN]	0	0	0	0	0	3 weeks	1	0	Allergic	0	AC_ANTI-ML	1	0	0	0	0	0
CN(C)CCCN1c2ccccc2Sc2ccccc21 [PROMAZINE]	0	0	0	0	0	2 days - 2 months	0	0	Allergic	6	RC/CHLORPROMAZINE	6	0	0	1	0	0
CC(=O)OCC1=C(C(=O)O)N2C(=O)[C@@H](NC(=O)Cc3cccs3)[C@H]2SC1 [CEPHALOTHIN]	0	0	0	1.5	0	1 day - 1 month	1	0	Allergic	1	RC/NAFCILLINE/OXACILLINE/CEFAPIRINE	4	0	0	4	0	0
CC(CN(C)C)CN1c2ccccc2CCc2ccccc21 (stereo not given) [TRIMIPRAMINE]	0	0	0	0	0	2 weeks - 3 weeks	1	0	Dose-dependant	0	RC/DESIPRAMINE/CYAMEMAZINE	2	0	0	2	0	0
INTERFERON ALFA	0	0	0	58	0	8 days - 8 months	2	1	Dose-dependant	1	AGGRAVATION_HEPATITE_AUTOIMMUNE/B/DELTA AC_ANTI-ML/LKM/CH	2	1	3	21	0	0
CC(=O)Nc1ccc(OCC(O)CNC(C)C)cc1 (stereo not given) [PRACTOLOL]	0	0	0	0	0	16 months - 4 years	0	1	Allergic	0	AC_ANTI-N/-M #CBP	0	0	0	0	0	0

From ChEMBL document CHEMBL3137667, “[Drug-induced liver injury; fourteenth updated edition of the bibliographic database of liver injuries and related drugs]” (Gastroenterol Clin Biol, 2004)
